The results in this text go back to PMC4205289, “Triptolide inhibits human immunodeficiency virus type 1 replication by promoting proteasomal degradation of Tat protein” (Retrovirology, 2014).

The structures appear in SMILES notation. Where two headings read alike, the source gives them in different places.

What all share (type): cell-based
The subject of one data set is HIV-1-Luc. In words: microbe, parasite or virus in culture. How it is done: In the antiviral assay with the HIV-1 reporter virus, Jurkat cells were seeded at a density of 2 × 10^4 cells per well in 96-well tissue culture plates and infected with HIV-1-Luc at an MOI of 0.5 in the presence or absence of the test compounds. At 48 h post-infection, luciferase activity in the cells was determined and EC50 values were calculated as described above.

The next data set relates to HIV-1 BaL. In words: PBMC antiviral assay, p24 ELISA. Conditions: for EC50: Human immunodeficiency virus 1, BAL, PBMC, 144 h, p24, day 6 post-infection; for selectivity ratio at 6 days: human, read-out: SI (selective index, CC50/EC50).
Data set [1] relates to Tat-induced HIV-1 LTR activation. In words: HIV-1 LTR-luciferase reporter assay, Tat-induced, Jurkat cells. The settings on record: 48 h. How it is done: Jurkat cells were seeded in 24-well plates at a density of 2 × 10^5 cells per well. For TNF-α induction, cells were co-transfected with pLTR-Luc and pRL-TK in the presence or absence of the test compounds. Then, the cells were treated with 10 ng/mL TNF-α 36 h post-transfection. After induction for an additional 12 h, luciferase activity was analyzed. For Tat-induced LTR activation, Jurkat cells were co-transfected with pLTR-Luc (or pLTR-Luc-ΔkB), pEF1-Tat and pRL-TK, and cultured in the presence of various concentrations of test compounds for an additional 48 h before the determination of luciferase activity. Luciferase levels were expressed relative to levels in cells without induction.
A general note: Reporter assays use an easily measured gene product as a stand-in for the process of interest.

Usually EC50 stands for the concentration that produces a half-maximal response. A low value points to an effect from little substance. As to `CC(C)[C@]12O[C@H]1[C@@H]1O[C@]13[C@]1(O[C@H]1C[C@H]1C4=C(CC[C@@]13C)C(=O)OC4)[C@@H]2O` [triptolide], the EC50 with HIV-1-Luc (Human immunodeficiency virus 1, Jurkat, 48 h) came out at 0.45 nM; with HIV-1 BaL (PBMC donor A), 1.4 nM; in the data set on HIV-1 BaL (PBMC donor B), 1.6 nM; in the data set with HIV-1 BaL (PBMC donor C), 1 nM. In addition, the selectivity ratio at 48 h in the data set with HIV-1-Luc (human, HIV-1-Luc, Jurkat, read-out: SI (selective index, CC50/EC50)) worked out at 30.9. For the same compound, the selectivity ratio at 6 days with HIV-1 BaL (PBMC donor A) was determined as 9; in the data set with HIV-1 BaL (PBMC donor B), 9.6; with HIV-1 BaL (PBMC donor C), 11.2. Further, in data set [1] (co-transfection with pEF1-Tat), the “effect on Tat-induced gene expression (pLTR-Luc)” value is “inhibitory effect”. The “effect on Tat-mediated LTR activation, LTR with two mutated NF-κB binding sites” value in data set [1] (pLTRΔκB-Luc) was “reduced the Tat-mediated LTR activation”.
